Biological target: Cannabinoid receptor 1 (Homo sapiens, UniProt P21554)
Assay: Displacement of [3H][…] from human recombinant cannabinoid CB1 receptor expressed in CHO cells
Assay type: cell-based

Sequence of Cannabinoid receptor 1 (P21554 whole entry): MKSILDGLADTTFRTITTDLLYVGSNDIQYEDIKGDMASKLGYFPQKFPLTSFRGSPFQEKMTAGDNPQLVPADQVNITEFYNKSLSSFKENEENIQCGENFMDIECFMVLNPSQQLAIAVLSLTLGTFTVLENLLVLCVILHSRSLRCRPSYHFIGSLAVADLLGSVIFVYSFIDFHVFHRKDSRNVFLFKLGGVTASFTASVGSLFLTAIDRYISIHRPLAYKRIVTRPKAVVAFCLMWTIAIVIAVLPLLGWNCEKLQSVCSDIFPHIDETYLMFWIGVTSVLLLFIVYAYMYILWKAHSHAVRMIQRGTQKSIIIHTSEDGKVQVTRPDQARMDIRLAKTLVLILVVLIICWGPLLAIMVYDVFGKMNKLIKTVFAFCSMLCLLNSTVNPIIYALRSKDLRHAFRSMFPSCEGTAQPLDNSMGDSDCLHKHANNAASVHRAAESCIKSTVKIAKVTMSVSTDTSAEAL

Row | Structure (SMILES) | IC50 [nM]
1 | C[C@H](NC(=O)C(C)(C)Oc1ccc(C(F)(F)F)cn1)[C@@H](Cc1ccc(Cl)cc1)c1cccc(Br)c1 (racemic) | 0.59
2 | CC(C)(Oc1ccc(C(F)(F)F)cn1)C(=O)NC(C)(C)[C@@H](Cc1ccc(Cl)cc1)c1cccc(Br)c1 (racemic) | 22
3 | CC(C)(Oc1ccc(C(F)(F)F)cn1)C(=O)NCC(C)(Cc1ccc(Cl)cc1)c1cccc(Br)c1 (racemic) | 340
4 | CC(NC(=O)C(C)(C)Oc1ccc(C(F)(F)F)cn1)C(C)(Cc1ccc(Cl)cc1)c1cccc(Br)c1 (racemic) | 25
5 | CC(NC(=O)C(C)(C)Oc1ccc(C(F)(F)F)cn1)C(C)(Cc1ccc(Cl)cc1)c1cccc(Br)c1 (stereo in doubt; 5b) | 260

Now from value to molecule:

Row | IC50 [nM] | Structure (SMILES)
6 | 1300 | CC(C)(Oc1ccc(C(F)(F)F)cn1)C(=O)N1CC(Cc2ccc(Cl)cc2)(c2ccccc2)C1
7 | 810 | CC(C)(Oc1ccc(C(F)(F)F)cn1)C(=O)N1CCC(Cc2ccc(Cl)cc2)(c2ccccc2)C1 (racemic)
8 | 2000 | CC(C)(Oc1ccc(C(F)(F)F)cn1)C(=O)N1CCCC(Cc2ccc(Cl)cc2)(c2ccccc2)C1 (racemic)

— ChEMBL document CHEMBL1208788 (Bioorg Med Chem Lett, 2010)
